Entries after “also recorded” stand apart in the source; their conditions may differ.
Assays:
[1] = system: MIAPACA2 cells; assay: Pulse-chase study with tyrosine-derived intermediates after two weeks of 13C9-Tyr labelling; assay type: cell-based, human; settings: for effect on intracellular levels of the other Tyr-derived metabolites: exogenous unlabelled metabolite; for increase of the fraction of unlabelled (non-labelled) CoQ10: unlabelled intermediate added in the presence of 13C9-Tyr, 21% O2
Procedure: Using the same experimental scheme, the incorporation of Tyr-derived metabolites into CoQ10 was measured. […] For metabolomics, briefly, cells were washed in 4° C. 0.9% saline and metabolites were extracted with 46% methanol:23% H2O:[…] chloroform that contained a labelled amino acid standard mix (MSK-A2-1.2, Cambridge Isotope Laboratories, Inc.). Enzymatic assay samples were extracted using 80% methanol: 20% H2O that contained labelled amino acid standards. Extracts were placed into 1.5 mL Eppendorf tubes, vortexed at 4° C. for 10 min and centrifuged at 4° C. for 10 min at 17,200×g in a microcentrifuge. The aqueous phase was transferred to vials for GC-MS or Eppendorf tubes for LC-MS. Polar samples were evaporated in a […] and samples were resolved by GC-MS or LC-MS. Lipid samples were dried using a stream of N2 (for ^18O labelling studies) or air. Metabolite and lipid extracts were submitted to the […] Metabolomics Core Resource Laboratory. For polar metabolomics, the LC column was a Millipore ZIC-pHILIC (2.1×150 […], 5 μm bead size) coupled to a Dionex […] 3000 system. The column oven temperature was held at 25° C. The flow rate was 100 μL/min, and the injection volume was 1 μL. Buffer A was 10 mM ammonium carbonate in water, pH 9, and Buffer B was neat acetonitrile. The gradient profile was 80-20% B (0-30 min), 20-80% B (30-31 min), and 80-80% B (31-42 min). MS Analyses were carried out on a Thermo Q Exactive HF mass spectrometer using a heated electrospray ionization (HESI) source. The method duration was 30 min using a polarity-switching, top 5 method. The spray voltage for both positive and negative ion modes was 3.5 kV. The capillary temperature was 320° C. with a maximum spray current of 100 ρA. The full MS scan was carried out at 120,000 resolution with a scan range of 67-1000 m/z. For ^18O2 labelling experiments, full MS scans were carried out at 240,000 resolution at the same scan range. Tandem MS spectra were obtained at 15,000 resolution. All data were acquired in profile mode. Peak heights were analyzed using Xcalibur (ThermoFisher Scientific). Lipid metabolomics were acquired using a Waters CSH-C18 (2.1×100 mm, 1.7 μm) column coupled to a Dionex […] 3000 system. The column oven temperature was held at 55° C. The flow rate was 300 μL/min and the injection volume was 1 μL. Buffer A was 60:40 acetonitrile:water, 0.1% formic acid and Buffer B was 90:10 isopropanol:acetonitrile, 10 mM ammonium formate. The gradient profile was 40-43% B (0-1.25 min), 43-50% B (1.25-2 min), 50-54% B (2-11 min), 54-70% B (11-12 min), 70-99% B (12-18 min), […], 99-40% B (23-24 min), hold at 40% B (1 min). MS Analyses were carried out on a Thermo Q Exactive HF mass spectrometer using a heated electrospray ionization (HESI) source. The method duration was 20 minutes using a polarity-switching, top 10 method. The spray voltage for both positive and negative ion modes was 3.5 kV. The capillary temperature was 320° C. with a maximum spray current of 100 ρA. The full MS scan was carried out at 120,000 resolution with a scan range of 350-2000 m/z. For ^18O2 labelling experiments, full MS scan was carried out at 240,000 resolution at the same scan range. Tandem MS spectra were obtained at 15,000 resolution. All data were acquired in profile mode. Peak heights were analyzed using Xcalibur (ThermoFisher Scientific).

[2] = system: human cells; assay: 18O2-GASSP labelling of human cells, untargeted polar metabolomics, with or without IOX1; assay type: cell-based; settings: 18O labelling of the metabolite in cells treated with IOX1 (dioxygenase inhibitor), 24 hours
Procedure: To map the molecular fate of O2 in metabolic pathways in living cells, GASSP was used to carry out ^18O2 labelling in cell lines of different tissue origins at ^18O2 concentrations that represented physiological (3%), hypoxic (1%), and severely hypoxic (0.2%) oxygen tensions found in tissues and tumours^7. At the end of each run, polar metabolites were extracted and untargeted polar metabolomics using liquid chromatography-high resolution mass spectrometry (LC-MS) were carried out to identify metabolites labeled with ^18O.
A list of unique features identified by untargeted metabolomics that were >0.25% (natural abundance of ^18O is 0.2%) labelled by ^18O atoms in each cell line at each oxygen tension was generated. In addition, background signal was controlled by requiring that ^18O labeled peaks had to have a signal that was two-fold greater than naturally occurring isotopes found in non-labelled (^16O) metabolite cell extracts. To determine the proportion of unique ^18O labelled features that were due to dioxygenase activity, cells were treated with a pan-dioxygenase inhibitor (IOX1) at concentrations that inhibit iron-dependent dioxygenases, such as the HIF1α prolyl hydroxylases (FIGS. 5E-5F) and identified ^18O labelled polar metabolites. This list of ^18O metabolites was generated by identifying all features in the unlabelled samples, filtering these features against blank samples to remove background peaks, and calculating the fractional ^18O labelling with the assumption that a metabolite would have no more than three oxygen atoms labelled, followed by manual curation of labelled features (FIG. 1B and FIG. 5G). […] These ^18O-labelled features were termed the oxy-metabolome.
To determine the identities of the labeled metabolites, the list of ^18O labelled features was annotated to their corresponding unlabelled metabolites using retention time matching, tandem mass spectrometry (MS2) fragmentation patterns, and database searching.
All steps involved in setting up labelling with ^18O2 were performed at room temperature and inside a chemical fume hood. The procedure may vary depending on the type and number of tissue culture plates in the chamber and the amount of media in the plates. Users must test the system by using ^16O2:CO2:N2 or other unlabelled gases to optimize conditions for their needs and avoid consumption of costly labelled gases. Cells were treated with or without 5 μM MG132, 500 μM IOX1, 250 μM DFO, or 70 μM ascorbate, before placing tissue culture plates into the modular incubator chamber (MIC) containing a wireless oxygen sensor and a 15 cm dish of water to maintain humidity. Next, the clamps were closed to form an air-tight seal between the lid and platform of the MIC. […] N2 flushing was repeated for a total of three times, or until the sensor in the chamber stabilized at 0% O2 for 10 minutes.

[3] = system: MIAPACA2 cells; assay: Oxygen consumption rate (OCR) in spheroids; assay type: cell-based, human; settings: HPDL KO cells, 1 mM, 3D conditions
Procedure: For measurement of oxygen consumption in spheroids, oxygen consumption rate (OCR) was measured with an XF96 analyzer (Seahorse Bioscience) and the Seahorse XFe96 Spheroid FluxPak, as described by the manufacturer's protocol. Spheroids were generated by seeding 40,000 cells per well into a low-attachment U-bottom 96-well plate with DMEM+10% diaFBS and 5% Matrigel. If indicated, spheroids were treated with or without 1 mM 4-HMA or 4-HB for the duration of the assay. Spheroids were allowed to form for three days before measuring oxygen consumption measurement. Each spheroid was transferred to a Spheroid FluxPak plate containing DMEM (25 mM glucose, 4 mM glutamine, and without pyruvate, phenol red and bicarbonate), and allowed to equilibrate for 1 hr at 37° C., no CO2. OCR measurements were normalized to size of the spheroid.

[4] = system: HPDL; assay: HPDL levels in the cell after addition of HPDL products; assay type: cell-based
[5] = system: MIAPACA2 cells; assay: 3D growth assay; assay type: cell-based, human; settings: HPDL KO cells, 1 mM, three days
Procedure: For the 3D growth assay, approximately 2,500 cells were seeded into a low-attachment 96-well plate containing DMEM+10% diaFBS and 5% Matrigel. Cells were grown for three days at 37° C. and 5% CO2. Cells were also treated or without 1 mM 4-HMA or 4-HB for the duration of the assay. To measure 3D growth with the CyQUANT Cell Proliferation Assay kit, plates were frozen at −80° C., thawed at room temperature, and equal volumes of 2× CyQUANT reagent+lysis buffer was added to the wells. As a control, wells containing media+5% Matrigel and no cells were used as blanks. CyQUANT measurements were performed as described in the manufacturer's instructions.

[6] = target: T1, HPDL (Homo sapiens, UniProt Q96IR7); assay: HPDL enzymatic assay with immunopurified HPDL-FLAG; assay type: biochemical; settings: 400 μM substrate, 37° C., 21% 16O2, 1 hour
T1 construct: made in house; host or cells: MIAPACA2 sgHPDL #3 (HPDL-knockout) cells stably infected with the pLenti6.2 lentiviral vector; anti-FLAG M2 magnetic bead immunoprecipitation
T1 sequence (Q96IR7 1-371): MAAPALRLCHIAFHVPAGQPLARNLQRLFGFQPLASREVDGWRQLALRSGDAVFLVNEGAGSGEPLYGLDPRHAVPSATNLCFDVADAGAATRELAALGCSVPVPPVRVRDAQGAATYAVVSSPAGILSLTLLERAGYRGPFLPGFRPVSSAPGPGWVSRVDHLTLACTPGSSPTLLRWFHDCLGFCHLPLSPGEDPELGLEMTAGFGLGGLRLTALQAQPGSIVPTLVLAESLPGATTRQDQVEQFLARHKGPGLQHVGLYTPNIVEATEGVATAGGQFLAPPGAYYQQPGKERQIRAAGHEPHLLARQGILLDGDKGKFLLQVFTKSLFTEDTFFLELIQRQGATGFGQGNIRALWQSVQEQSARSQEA
Procedure: Homogentisate, the product of HPD, was not produced in any of the present enzymatic assays. […] This directly confirmed that HPDL activity, and not a potential HPDL-interacting enzyme, was needed for 4-HMA synthesis.
For the HPDL enzymatic assay, cell lysates were generated in TNE lysis buffer (50 mM Tris-HCl pH 8.0, 150 mM NaCl, 2 mM EDTA, and 1% NP-40, supplemented with protease (ThermoFisher Scientific) and phosphatase (10 mM NaF, 10 mM β-glycerophosphate, and 10 mM sodium pyrophosphate) inhibitors. HPDL-FLAG was immunoprecipitated using anti-FLAG M2 magnetic beads (Millipore Sigma, M8823). Cell lysates were incubated with anti-FLAG M2 magnetic beads for 1 hour at 4° C. on a rotating platform. Beads were washed four times with TNE lysis buffer, and then 10% and 90% of the immunopurified protein was used for immunoblotting or enzymatic assay, respectively. […] At the end of the assay, 10 uL of assay buffer was retrieved and prepared for analysis by gas chromatography-mass spectrometry (GC-MS, see Metabolomics section).

Structure (SMILES)	incorporation into CoQ10 [1]	effect on 4-HB levels ([1]; exogenous metabolite, 24 hours)	effect on intracellular levels of the other Tyr-derived metabolites ([1]; 24 hours)	increase of the fraction of unlabelled (non-labelled) CoQ10 ([1]; 24 hours)	IOX1 Sensitive (Yes/No) [2]	OCR [3]	HPDL levels in the cell [4]	3D growth [5]	4-HMA production by HPDL from the substrate [6]
O=C(O)C(O)c1ccc(O)cc1 (racemic) [Metabolite 4-HMA, 2-hydroxy-2-(4-hydroxyphenyl)acetic acid]	incorporated into CoQ10	minimal effect	had no effect on Tyr, 4-HPPA and 4-HPLA levels	30%	Yes	increased	reduce	increased	–
N[C@@H](Cc1ccc(O)cc1)C(=O)O [Tyr, tyrosine]	–	–	–	–	Yes	–	–	–	not
O=C(O)C(=O)Cc1ccc(O)cc1 [Metabolite 4-HPPA, 4-hydroxyphenylpyruvate]	–	–	–	30%	–	–	–	–	resulted in the generation of 4-HMA; also recorded: synthesized 4-HMA
O=C(O)c1ccc(O)cc1 [Metabolite 4-HB, 4-hydroxybenzoic acid]	–	–	did not change Tyr, 4-HPPA, 4-HPLA, and 4-HMA levels	30%	–	increased	reduce	increased	–
